Results as given in patent publication US9688708B2, “Photolabile compounds” (The Trustees of Columbia University In The City of New York, priority 2003, dated 2017).
Read-outs that look alike come from different tables or passages of the source.

Columns and labels:
mouse cortical neuron = test: Whole-cell patch-clamp of mouse cortical neuron, perfusion of TzGly; format: cell-based; conditions: 1 μM
Text: FIGS. 13A and 13B: FIG. 13A depicts the structure of TzGly. […] The measurement results were obtained by the whole-cell patch-clamp method, as known and used in the art.

[1] = tested on: Retzius (Rz) cells in the ganglion; test: Intracellular voltage recording of leech ganglion neuron with Xe flash irradiation; format: cell-based, Hirudo medicinalis; conditions: for action potential activity on addition to saline, before irradiation: ~100 μM in saline, no light flash; for action potential activity after light flash: pulsed Xe lamp flash, UV removed by band-pass filter at 500 nm
Protocol: Hirudo medicinalis has a central nerve cord with several ganglia, each one containing about 400 neurons arranged in a known pattern. (W.-R. Schlue et al., 1980, J. Exp. Biol., 82:23-34). An entire ganglion was mounted on a dish. The transmembrane potential for a single cell (a neuron) in the ganglion was recorded by inserting inside the neuron a glass micropipet with a micrometer-sized end, filled with saturated aqueous KCl that acts as a luggin bridge for an Ag/AgCl electrode. Another Ag/AgCl electrode was used as a reference. The signal was taken with an AM-System 1600 amplifier, and the entire setup was covered with a Faraday cage. A 12 bit A/D acquisition card was used to digitize the data using an ad-hoc program written in QuickBasic.
Low Ca^2+-high Mg^2+ saline solution (NaCl, 102 mM; KCl, 4 mM; CaCl2: 1 mM; and MgCl2: 10 mM; Tris base, pH 5.4 adjusted to 7.4) was perfused through the dish. […] A pulsed Xe lamp located under the dish was used to irradiate the solution. UV light was removed using a band-pass filter at 500 nm.
After impaling the cell with an electrode, many experiments were performed on the same cell to ensure reproducibility. […] 300 seconds later, at 5500 s, a light flash was directed to the ganglion.

[2] = Cyclic voltammetry in water, RuIII/RuII redox potential; format: physicochemical; conditions: measured in water
Protocol: The supporting electrolyte was KNO3 (1 M). dE/dt=100 mV/s in glassy carbon electrode.
(§1) UV-vis spectra in water were obtained with an HP 8453 diode array spectrophotometer. RMN ^1H spectra were obtained using a Bruker 500 MHz equipment. CV measurements were performed with a PAR 273A potentiostat. Irradiation was effected by means of a pulsed Xe lamp, (pulse energy ˜0.5 J), with a low-pass filter at 480 nm. Irradiation using a 473 nm DPSS laser gave similar results.
(§2) (See, e.g., E. S. Dodsworth et al., 1986, Chem. Phys. Lett., 124:152-158). The photoactivity of these compounds has been explained in terms of a reaction pathway that involves the transition between the MLCT state to a lower-energy d-d state, which promotes ligand release. There is a direct correspondence between the energy of the MLCT transition and the quantum yield of the photoreaction. For [Ru(bpy)2(4AP)CH3CN]^2+, the photoreaction yield is about φPR=0.4. Since [Ru(bpy)2(4AP)2]Cl2 presents a red-shifted band, a lower photoreaction yield is expected. An estimate based on early experiments leads to an estimate of φPR≅0.02 at 473 nm.

[3] = UV-vis spectra of Ru(bpy)2(4AP)2 before and after photolysis; dark stability and recombination; format: physicochemical
Protocol: The photoproducts after exposure to light were Ru(bpy)2(4AP)(H2O) and free 4AP.
as §1

[4] = 1H NMR before and after irradiation with visible light (photorelease of 4AP); format: physicochemical; conditions: after irradiation with visible light, from NMR signal integration
Protocol: as §1
Although at pH 7 the spectrum of the irradiated complex is very similar to that of the original complex, a diminished shoulder at 470 nm becomes evident. To determine the nature of the photoreaction, NMR spectra were taken before and after irradiation with visible light. […] After irradiation, this signal decreased, and two new signals appeared at lower fields: one corresponding to the free ligand (m3), and the other corresponding to the aquo-4AP complex (m2), indicating photorelease of the 4AP. These two latter signals integrated for 0.30 and 0.27 of the initial signal, which corresponds to a photoreaction of 60%.

[5] = Quantum yield of the photoreaction; format: physicochemical
Text: as §2

[6] = Photorelease of TzGly by localized irradiation; format: physicochemical; conditions: irradiation at 470 nm, light spot diameter <1 micron

NC(C(=O)O)c1nnn[nH]1 (racemic) [TzGly, (RS)-(tetrazol-5-yl)glycine]
neuron spiking on addition via perfusion (mouse cortical neuron): spiking of a mouse cortical neuron

[Cl][Ru][Cl].c1ccc(-c2ccccn2)nc1.c1ccc(-c2ccccn2)nc1.c1ccc(-c2ccccn2)nc1 [Ru(bpy)3Cl2, reference compound]
action potential activity on addition to saline, before irradiation [1]: without significant changes in activity | action potential activity after light flash ([1]; ~100 μM): after a short time the activity decreased to the basal level

[Ru(bpy)2(4AP)2]Cl2
redox potential of the couple RuIII/RuII [2]: 0.76 V versus Ag/AgCl | time without dark decomposition ([3]; in the dark, UV-vis): more than 20 hours | 4AP recombination ([3]; irradiated solution after 7 hours in the dark): less than 4% | photoreaction (photorelease of 4AP) [4]: 60% | action potential activity on addition to saline, before irradiation [1]: the activity remained unchanged | action potential activity after light flash ([1]; ~100 μM): sudden activity was recorded and it remained high after 300 s | action potential activity after second light pulse ([1]; ~100 μM, second light pulse at 6750 s): an even higher activity | photoreaction yield φPR ([5]; at 473 nm, estimate based on early experiments): ~0.02

[Ru(bpy)2(4AP)CH3CN]^2+
photoreaction yield φPR [5]: ~0.4

[Ru(bpy)2(TzGly)(py)]Cl2
photorelease on irradiation [6]: photoreleased TzGly
